Results taken from patent publication US5910498A, “Pyridonecarboxylic acid derivatives or salts thereof and antibacterial agents comprising the same as active ingredient” (Wakunaga Seiyaku Kabushiki Kaisha, priority 1994, dated 1999).
Converted amounts (≈) assume the structure as drawn.

Key:
[1] = test system: S. aureus 209P; assay: Antibacterial action, MIC against S. aureus 209P (standard method of the Japanese Chemotherapy Society); format: cell-based; conditions: Staphylococcus aureus, read-out: minimum growth-inhibition concentration (MIC)
Protocol: (§1) A minimum growth-inhibition concentration (MIC: μg/ml) was measured according to the standard method of the Japanese Chemotherapy Society (CHEMOTHERAPY, 29 (1), 76, 1981).

[2] = test system: female ICR mouse; assay: Phototoxicity test, ear abnormality after UV irradiation; format: in vivo; conditions: 40 mg/kg i.v., UV 320-400 nm 4 hours; for Frequency (ear abnormality), 0 hour / Frequency (ear abnormality), 24 hours / Frequency (ear abnormality), 48 hours: affected/total mice; for Rating (ear abnormality), 0 hour / Rating (ear abnormality), 24 hours / Rating (ear abnormality), 48 hours: point 0 no abnormality, 1 light, 2 medium erythema, 3 heavy erythema or edema
Protocol: After a compound to be tested (40 mg/kg/10 ml) was intravenously administered to a female ICR mouse (5-6 weeks old), ultraviolet radiation (320 to 400 nm, 1.8 mW/cm^2 /sec.) was irradiated for 4 hours. […] Ear abnormality was rated point 0 for no abnormality, point 1 for light erythema, point 2 for medium erythema, and point 3 for heavy erythema or edema.

[3] = test system: CHL cells; assay: Chromosomal aberration test, CHL cells; format: cell-based; conditions: 0 to 200 μg/ml; metabolic activation method (S9) and direct method 24 and 48 hours
Protocol: CHL cells (0.2 to 2×10^5 cells/well) suspended in an Eagle's MEM medium having 10% bovine fetal serum added thereto were incubated in a 60-mm dish. After the cells were cultured at 37° C. for 4 to 72 hours in the presence of 5% CO2, the medium was replaced by a medium containing an agent in a different concentration and culturing was continued under the same conditions. In the case of a metabolic activation method (S9 added medium), after 6 hours of culturing, the medium was replaced by a medium free of an agent and S9 and culturing was continued for a further 18 hours. In the case of a direct method, the cells were cultured in two ways for 24 hours and 48 hours. At the end of culturing, a chromosome sample was prepared according to the method prescribed by the Japan Surrounding Mutagen society.

[4] = test system: P. aeruginosa IFO3445; assay: Antibacterial action, MIC against P. aeruginosa IFO3445 (standard method of the Japanese Chemotherapy Society); format: cell-based; conditions: Pseudomonas aeruginosa, read-out: minimum growth-inhibition concentration (MIC)
Protocol: as §1

| SMILES | MIC [1] [µg/mL] | Frequency (ear abnormality), 0 hour [2] | Rating (ear abnormality), 0 hour [2] | Frequency (ear abnormality), 24 hours [2] | Rating (ear abnormality), 24 hours [2] | Frequency (ear abnormality), 48 hours [2] | Rating (ear abnormality), 48 hours [2] | Chromosomal aberration (rate of structural aberration) [3] | MIC [4] [µg/mL] |
| --- | --- | --- | --- | --- | --- | --- | --- | --- | --- |
| Nc1cc(-n2cc(C(=O)O)c(=O)c3cc(F)c(N4CC[C@H](N)C4)nc32)c(F)cc1F [Example 48, 1-(3-amino-4,6-difluorophenyl)-7-[(3S)-3-aminopyrrolidin-1-yl]-6-fluoro-1,4-dihydro-4-oxo-1,8-naphthyridine-3-carboxylic acid] | 0.025 (≈ 0.0596 µM) | 0/3 | 0 | 0/3 | 0 | 0/3 | 0 | negative | 0.1 (≈ 0.238 µM) |
| C[C@@H]1CN(c2nc3c(cc2F)c(=O)c(C(=O)O)cn3-c2cc(N)c(F)cc2F)C[C@H]1N [Example 56, 1-(3-amino-4,6-difluorophenyl)-7-[(3S,4R)-3-amino-4-methylpyrrolidin-1-yl]-6-fluoro-1,4-dihydro-4-oxo-1,8-naphthyridine-3-carboxylic acid] | 0.025 (≈ 0.0577 µM) |  |  |  |  |  |  |  | 0.1 (≈ 0.231 µM) |
| Nc1cc(-n2cc(C(=O)O)c(=O)c3cc(F)c(N4CC[C@H](N)C4)cc32)c(F)cc1F [Example 60, 1-(3-amino-4,6-difluorophenyl)-7-[(3S)-3-aminopyrrolidin-1-yl]-6-fluoro-1,4-dihydro-4-oxoquinoline-3-carboxylic acid] | 0.013 (≈ 0.0311 µM) |  |  |  |  |  |  |  | 0.1 (≈ 0.239 µM) |
| Nc1cc(-n2cc(C(=O)O)c(=O)c3cc(F)c(N4CC(N)C4)nc32)c(F)cc1F [Example 117, 7-(3-aminoazetidin-1-yl)-1-(3-amino-4,6-difluorophenyl)-6-fluoro-1,4-dihydro-4-oxo-1,8-naphthyridine-3-carboxylic acid] | 0.05 (≈ 0.123 µM) | 0/3 | 0 | 0/3 | 0 | 0/3 | 0 | negative | 0.1 (≈ 0.247 µM) |
| Nc1cc(-n2cc(C(=O)O)c(=O)c3cc(F)c(N4CC(N)C4)c(F)c32)c(F)cc1F [Example 150, 7-(3-aminoazetidin-1-yl)-1-(3-amino-4,6-difluorophenyl)-6,8-difluoro-1,4-dihydro-4-oxoquinoline-3-carboxylic acid] | 0.025 (≈ 0.0592 µM) | 0/3 | 0 | 0/3 | 0 | 0/3 | 0 |  | 0.2 (≈ 0.474 µM) |
| Nc1cc(-n2cc(C(=O)O)c(=O)c3cc(F)c(N4CC(N)C4)c(Cl)c32)c(F)cc1F [Example 152, 7-(3-aminoazetidin-1-yl)-1-(3-amino-4,6-difluorophenyl)-8-chloro-6-fluoro-1,4-dihydro-4-oxoquinoline-3-carboxylic acid] | < 0.013 | 0/3 | 0 | 0/3 | 0 | 0/3 | 0 |  | 0.05 (≈ 0.114 µM) |
| CC1(N)CN(c2c(F)cc3c(=O)c(C(=O)O)cn(-c4cc(N)c(F)cc4F)c3c2Cl)C1 [Example 156, 1-(3-amino-4,6-difluorophenyl)-7-(3-amino-3-methylazetidin-1-yl)-8-chloro-6-fluoro-1,4-dihydro-4-oxoquinoline-3-carboxylic acid] | < 0.013 |  |  |  |  |  |  |  | 0.1 (≈ 0.221 µM) |
| CNC1CN(c2c(F)cc3c(=O)c(C(=O)O)cn(-c4cc(N)c(F)cc4F)c3c2Cl)C1 [Example 157, 1-(3-amino-4,6-difluorophenyl)-8-chloro-6-fluoro-7-(3-methylaminoazetidin-1-yl)-1,4-dihydro-4-oxoquinoline-3-carboxylic acid] | < 0.013 |  |  |  |  |  |  |  | 0.1 (≈ 0.221 µM) |
| Nc1cc(-n2cc(C(=O)O)c(=O)c3c(O)c(F)c(N4CC[C@H](N)C4)cc32)c(F)cc1F [Example 160, 1-(3-amino-4,6-difluorophenyl)-7-[(3S)-3-aminopyrrolidin-1-yl]-6-fluoro-5-hydroxy-1,4-dihydro-4-oxoquinoline-3-carboxylic acid] | 0.025 (≈ 0.0576 µM) | 0/3 | 0 | 0/3 | 0 | 0/3 | 0 |  | 0.2 (≈ 0.46 µM) |
| Cc1c(F)c(N2CC[C@H](N)C2)cc2c1c(=O)c(C(=O)O)cn2-c1cc(N)c(F)cc1F [Example 162, 1-(3-amino-4,6-difluorophenyl)-7-[(3S)-3-aminopyrrolidin-1-yl]-6-fluoro-5-methyl-1,4-dihydro-4-oxoquinoline-3-carboxylic acid] | 0.013 (≈ 0.0301 µM) |  |  |  |  |  |  |  | 0.2 (≈ 0.463 µM) |
| NC1CCN(c2nc3c(cc2F)c(=O)c(C(=O)O)cn3-c2ccc(F)cc2F)C1 (stereo not drawn) [tosufloxacin, reference compound] | 0.05 (≈ 0.124 µM) | 4/5 | 1.8 | 4/5 | 0.8 | 1/5 | 0.2 |  | 0.39 (≈ 0.965 µM) |
